Measured values taken from patent publication US12251459B2, “Compositions, formulations, and methods for hair treatment” (Oddity Labs, LLC, priority 2022, dated 2025).

Tests used:
Assay type in all cases: cell-based
[1] = tested on: human hair follicle dermal papilla cells (hFDPC); assay: Human follicle dermal papilla cells (hFDPC) proliferation assay; conditions: hFDPCs supplemented with BIO, BMP-2 and FGFβ
Excerpt: In Table 8, A represents less than 20% of increased proliferation of hFDPCs, B represents 20-40%, and C represents larger than 40% of increased proliferation of hFDPCs.

HepG2 cells = assay: Caspase 3/7 activity in HepG2 cells; conditions: HepG2, >2-log concentration range, versus % v/v-matched DMSO
Procedure: Cells were treated with either the example compounds or vehicle control containing correspondingly % v/v-matched amounts of DMSO spanning a >2-log concentration range. Data represents mean±s.d. and representative of at least 2 experimental replicates.
HepG2 cells are an immortalized liver cell line commonly used to study apoptosis induced by small molecules. Cells were treated with either the example compounds or vehicle control containing correspondingly % v/v-matched amounts of DMSO spanning a >2-log concentration range. Data represents mean±s.d. and representative of at least 2 experimental replicates.

TK.6 lymphoblasts = assay: TK.6 micronucleus assay
Procedure: (§1) The safety/toxicology profiles of a compound or salt of the present disclosure was evaluated via a series of in vitro genotoxicity assays, including the SOS-chromotest to determine bacterial genotoxicity, and the TK.6 micronucleus assay to determine chromosomal damage and forward mutations. Standard reactive oxygen species (ROS) and caspase 3/7 assay were conducted to determine general cellular toxicity. Moreover, a series of sensitization tests were conducted to predict any potential skin sensitivity. These include the direct peptide reactivity assay to evaluate haptenization, the KeratinoSens reporter assay to determine potential sensitivity via the activation of a cytoprotective pathway, and an immunological assay using human immature monocyte-derived dendritic cells to evaluate any potential immunogenicity.
TK.6 lymphoblasts are a well-studied cell line commonly used for gene mutation analyses. They are heterozygous for the thymidine kinase gene (TK) and enable the detection of forward mutations and chromosomal damage, which manifests as micronuclei and are detectable via flow cytometry.
TK.6 cells were dosed with the example compounds or a vehicle control (0.1% v/v DMSO) and cultured with or without S9 metabolic activation for 24 hr. […] Methyl methanesulfonate, a known genotoxic, alkylating agent was used as a positive control for micronuclei detection.
The micronucleus assay was also performed to determine if the compounds are genotoxic by evaluating the presence of micronuclei. […] In combination. […] I-17 elicited genotoxicity at >3.125 μg/mL.

[2] = tested on: follicle dermal papilla cells; assay: Reactive oxygen species (ROS) activity in follicle dermal papilla cells; conditions: 5 μg/mL, 24 hr, relative to vehicle control (0.1% v/v DMSO)
Procedure: Normalized reactive oxygen species (ROS) activity in follicle dermal papilla cells were analyzed after treatment with 5 μg/mL example compounds relative to vehicle control (0.1% v/v DMSO) after 24 hr. The increase in ROS levels is harmful to cell homeostasis, structures, and functions and results in oxidative stress.

bacteria = assay: SOS chromotest (bacteria-based genotoxicity test, β-galactosidase activity); conditions: varying concentrations; 4-NQ as known genotoxin
Procedure: The SOS chromotest is a well-established bacteria-based test for genotoxicity.
as §1

Nrf2-ARE pathway = assay: KeratinoSens Nrf2-ARE reporter assay (ARE-luciferase); conditions: cinnamic aldehyde as known sensitizing compound
Procedure: as §1
The Nrf2-ARE pathway is a master regulator of cytoprotective responses to oxidative stress, and is an early indicator of skin sensitization. Nrf2 (nuclear factor erythroid 2-related factor) is a transcription factor that binds to antioxidant responsive elements (ARE). By fusing ARE to the light-producing luciferase gene, a KeratinoSens Nrf2-ARE reporter assay was performed whereby luciferase signal is directly correlated to Nrf2-ARE pathway activation. Normalized ARE-luciferase activity was measured using a known sensitizing compound (cinnamic aldehyde) and example compounds.

Structure (SMILES) | Percent Increase Proliferation of hFDPCs (%) [1] | Normalized caspase 3/7 activity (HepG2 cells) | micronuclei formation / genotoxic effect in TK.6 cells (TK.6 lymphoblasts) | also measured
C=CCc1cc(/C=C2\C(=O)NC(=S)N(c3ccc(OC)cc3)C2=O)cc(OC)c1O [I-17] | C (C represents larger than 40% of increased proliferation of hFDPCs) | significant caspase-3/7 activation at the highest concentration |  | concentration at which genotoxicity was elicited in TK.6 micronuclei assay (TK.6 lymphoblasts; 24 hr): > 3125 ng/mL
C=CCc1cc(/C=C2\C(=O)NC(=S)N(c3ccccc3OC)C2=O)cc(OCC)c1O [I-18] | B (B represents 20-40%) |  |  | Normalized reactive oxygen species (ROS) activity [2]: higher than other compounds
CCC(=O)N1CCN(c2nnc(-c3ccc(C)cc3)c3ccccc23)CC1 [II-4, 1-Propanone, 1-[4-[4-(4-methylphenyl)-1-phthalazinyl]-1-piperazinyl]-] | B (B represents 20-40%) | did not exhibit any caspase activation | do not promote any micronuclei formation | genotoxic effects in SOS chromotest (normalized β-galactosidase activity) (bacteria): did not exhibit any genotoxic effects
COC(=O)c1c(S(C)(=O)=O)[nH]c(-c2ccccc2)nc1=O [VII-1, 5- Pyrimidinecarboxylic acid, 1,4-dihydro-6-(methylsulfonyl)-4-oxo-2-phenyl-, methyl ester] | C (C represents larger than 40% of increased proliferation of hFDPCs) | did not exhibit any caspase activation | do not promote any micronuclei formation | sensitizing potential (normalized ARE-luciferase activity) (Nrf2-ARE pathway): exhibited sensitizing potential; genotoxic effects in SOS chromotest (normalized β-galactosidase activity) (bacteria): did not exhibit any genotoxic effects
COc1ccc(CCCc2nc3ccccc3[nH]2)cc1 [VII-14, 1H-Benzimidazole, 2-[3-(4-methoxyphenyl)propyl]-] | A (A represents less than 20% of increased proliferation of hFDPCs) | did not exhibit any caspase activation | do not promote any micronuclei formation | 
COc1ccc(CC(=O)Nc2sc3c(c2C(=O)Nc2cccc([N+](=O)[O-])c2)CCC(C)C3)cc1 (stereo not shown) [VII-22, Benzo[b]thiophene-3-carboxamide, 4,5,6,7-tetrahydro-2-[[2-(4-methoxyphenyl)acetyl]amino]-6-methyl-N-(3-nitrophenyl)-] | A (A represents less than 20% of increased proliferation of hFDPCs) |  |  | 
COC(=O)c1cccc(NC(=O)c2cc(NC(=O)c3ccccc3)cc(C(=O)Nc3cccc(C(=O)OC)c3)c2)c1 [VII-23, Benzoic acid, 3,3′-[[5-(benzoylamino)-1,3-phenylene]bis(carbonylimino)] bis-, dimethyl ester (9CI)] | B (B represents 20-40%) |  |  | 
Cc1ccc(-c2nc3ncccc3o2)cc1NC(=S)NC(=O)c1ccc(C(C)(C)C)cc1 [VII-24, Benzamide, 4-(1,1-dimethylethyl)-N-[[(2-methyl-5-oxazolo[4,5-b]pyridin-2-ylphenyl)amino]thioxomethyl]-] | A (A represents less than 20% of increased proliferation of hFDPCs) |  |  | 
CC1(c2ccccc2)NC(=O)N(Cc2cc(=O)n3ccccc3n2)C1=O (stereo not shown) [VII-25, 2,4-Imidazolidinedione, 5-methyl-3-[(4-oxo-4H-pyrido[1,2-a]pyrimidin-2-yl)methyl]-5-phenyl-] | B (B represents 20-40%) |  |  | 
Cc1ccccc1Cn1nc(C)c(NC(=O)c2csc3ccccc23)c1C [VII-26, Benzo[b]thiophene-3-carboxamide, N-[3,5-dimethyl-1-[(2-methylphenyl)methyl]-1H-pyrazol-4-yl]-] | A (A represents less than 20% of increased proliferation of hFDPCs) |  |  | 
